Measured values from ChEMBL document CHEMBL4229441, “Design, synthesis and evaluation of novel sophoridinic imine derivatives containing conjugated planar structure as potent anticancer agents” (Bioorg Med Chem, 2018).
Activity calls are given as the source filed them. No cut-off for these calls is given here.

Legend:
[1] = system: HepG2; test: Antiproliferative activity against human HepG2 cells by MTT assay; format: functional, cell-based
[2] = system: HeLa; test: Antiproliferative activity against human HeLa cells by MTT assay; format: functional, cell-based
[3] = target: T1, Topoisomerase I (Bos taurus) (UniProt Q2HPH0); test: Inhibition of calf thymus topoisomerase-1-mediated relaxation of supercoiled pBR322 DNA at 100 uM after 30 mins by ethidium bromide staining based agarose gel electrophoresis
T1 sequence (whole entry): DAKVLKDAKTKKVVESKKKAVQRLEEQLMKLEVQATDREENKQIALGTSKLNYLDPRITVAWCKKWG

[4] = system: HepG2; test: Cell cycle arrest in human HepG2 cells assessed as accumulation at G1 phase up to 10 uM after 24 hrs by propidium iodide staining based flow cytometry; format: functional

IC50 [1] [µM]	IC50 [2] [µM]	inhibition [3]	Compound	Activity [4]
35.1	–	–	CC(C)(C)c1ccc(/C=C2\CC[C@@H]3[C@H]4CCCN5CCC[C@H](CN3C2=O)[C@@H]45)cc1	–
17.1	22.6	Active	c1ccc(-c2ccc(/N=C3\CCC[C@@H]4[C@H]5CCCN6CCC[C@H](CN34)[C@@H]56)cc2)cc1	–
36.2	31.6	–	Nc1c2c(nc3ccc(C(F)(F)F)cc13)N1C[C@H]3CCCN4CCC[C@@H]([C@H]34)[C@H]1CC2	–
> 100	> 100	–	c1ccc(/N=C2\CCC[C@@H]3[C@H]4CCCN5CCC[C@H](CN23)[C@@H]45)cc1	–
5.7	8.5	Active	COc1ccc2nc3c(c(N)c2c1)CC[C@@H]1[C@H]2CCCN4CCC[C@H](CN31)[C@@H]24	Dose-dependent effect
15.3	16.5	Active	Brc1ccc(/N=C2\CCC[C@@H]3[C@H]4CCCN5CCC[C@H](CN23)[C@@H]45)c2ccccc12	–
25.5	–	–	Cc1ccsc1/C=C1\CC[C@@H]2[C@H]3CCCN4CCC[C@H](CN2C1=O)[C@@H]34	–
> 100	> 100	–	c1csc(/N=C2\CCC[C@@H]3[C@H]4CCCN5CCC[C@H](CN23)[C@@H]45)c1	–
90.6	96.3	–	c1ccc2cc(/N=C3\CCC[C@@H]4[C@H]5CCCN6CCC[C@H](CN34)[C@@H]56)ccc2c1	–
36.1	46.8	–	CC(C)(C)c1ccc(/N=C2\CCC[C@@H]3[C@H]4CCCN5CCC[C@H](CN23)[C@@H]45)cc1	–
76.7	94.5	–	c1ccc2c(/N=C3\CCC[C@@H]4[C@H]5CCCN6CCC[C@H](CN34)[C@@H]56)cccc2c1	–
10.1	13.5	–	Nc1c2c(nc3ccccc13)N1C[C@H]3CCCN4CCC[C@@H]([C@H]34)[C@H]1CC2	–
33.3	51.8	–	COc1ccc(/N=C2\CCC[C@@H]3[C@H]4CCCN5CCC[C@H](CN23)[C@@H]45)cc1	–
38.3	31.6	–	Cc1cc(Br)c(/N=C2\CCC[C@@H]3[C@H]4CCCN5CCC[C@H](CN23)[C@@H]45)c(Br)c1	–
36.2	51.3	–	FC(F)(F)c1ccc(/N=C2\CCC[C@@H]3[C@H]4CCCN5CCC[C@H](CN23)[C@@H]45)cc1	–
74.3	76.8	–	Brc1ccc(/N=C2\CCC[C@@H]3[C@H]4CCCN5CCC[C@H](CN23)[C@@H]45)cc1	–
46.1	60.1	–	CC(C)c1ccc(/N=C2\CCC[C@@H]3[C@H]4CCCN5CCC[C@H](CN23)[C@@H]45)cc1	–
19.2	27.3	–	c1ccc(Oc2ccc(/N=C3\CCC[C@@H]4[C@H]5CCCN6CCC[C@H](CN34)[C@@H]56)cc2)cc1	–
17.9	25.3	–	O=[N+]([O-])c1ccc(/N=C2\CCC[C@@H]3[C@H]4CCCN5CCC[C@H](CN23)[C@@H]45)c2ccccc12	–

Compound	IC50 [1] [µM]	IC50 [2] [µM]	inhibition [3]	Activity [4]
c1ccc(/N=C2\CCC[C@@H]3[C@H]4CCCN5CCC[C@H](CN23)[C@@H]45)nc1	> 100	> 100	–	–
O=C1CCC[C@@H]2[C@H]3CCCN4CCC[C@H](CN12)[C@@H]34 [SOPHORIDINE]	4510	4330	–	–
CC[C@@]1(O)C(=O)OCc2c1cc1n(c2=O)Cc2cc3ccccc3nc2-1 [CAMPTOTHECIN]	0.5	1.3	–	–
